The target of the test is PI3Kδ (PI3Kd) (Homo sapiens (Human), UniProt O00329). The test is described as follows: PI3K HTRF enzymatic inhibition assay (cell-free), delta isoform. Conditions: read-out: IC50 PI3Kd HTRF; recombinant PI3K delta, [ATP] 15 μM, [PIP2] 2 μM, 30 min preincubation. Background: In TR-FRET formats the signal depends on donor and acceptor labels being close together.
PI3Kδ (PI3Kd), sequence (O00329 whole entry, canonical isoform): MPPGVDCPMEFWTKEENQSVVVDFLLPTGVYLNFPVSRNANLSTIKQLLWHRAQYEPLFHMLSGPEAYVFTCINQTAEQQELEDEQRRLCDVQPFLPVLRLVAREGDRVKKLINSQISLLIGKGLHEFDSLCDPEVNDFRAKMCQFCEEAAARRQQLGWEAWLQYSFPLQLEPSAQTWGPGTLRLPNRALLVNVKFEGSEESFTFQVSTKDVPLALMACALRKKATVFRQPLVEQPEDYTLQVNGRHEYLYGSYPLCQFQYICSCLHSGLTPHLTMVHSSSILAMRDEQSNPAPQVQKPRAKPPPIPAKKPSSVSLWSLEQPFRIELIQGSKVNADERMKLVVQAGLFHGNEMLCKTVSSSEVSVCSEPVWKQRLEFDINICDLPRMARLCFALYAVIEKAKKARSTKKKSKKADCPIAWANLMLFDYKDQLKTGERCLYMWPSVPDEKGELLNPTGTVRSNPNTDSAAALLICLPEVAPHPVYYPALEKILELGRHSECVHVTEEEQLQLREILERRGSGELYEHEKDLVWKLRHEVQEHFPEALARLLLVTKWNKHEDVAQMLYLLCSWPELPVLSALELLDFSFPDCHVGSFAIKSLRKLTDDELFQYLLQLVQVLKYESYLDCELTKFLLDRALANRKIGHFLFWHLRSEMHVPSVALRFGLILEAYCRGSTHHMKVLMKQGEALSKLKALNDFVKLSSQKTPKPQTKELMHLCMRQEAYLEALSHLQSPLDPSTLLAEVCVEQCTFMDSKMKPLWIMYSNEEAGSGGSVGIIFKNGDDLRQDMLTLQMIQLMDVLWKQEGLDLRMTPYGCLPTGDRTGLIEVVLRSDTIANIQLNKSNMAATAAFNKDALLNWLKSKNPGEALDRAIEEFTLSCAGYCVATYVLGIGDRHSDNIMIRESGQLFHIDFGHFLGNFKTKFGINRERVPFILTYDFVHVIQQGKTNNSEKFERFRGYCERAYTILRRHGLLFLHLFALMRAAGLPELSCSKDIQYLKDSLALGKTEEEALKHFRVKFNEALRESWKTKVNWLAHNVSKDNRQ
PI3Kδ (PI3Kd), sequence (P27986 whole entry partner, canonical isoform): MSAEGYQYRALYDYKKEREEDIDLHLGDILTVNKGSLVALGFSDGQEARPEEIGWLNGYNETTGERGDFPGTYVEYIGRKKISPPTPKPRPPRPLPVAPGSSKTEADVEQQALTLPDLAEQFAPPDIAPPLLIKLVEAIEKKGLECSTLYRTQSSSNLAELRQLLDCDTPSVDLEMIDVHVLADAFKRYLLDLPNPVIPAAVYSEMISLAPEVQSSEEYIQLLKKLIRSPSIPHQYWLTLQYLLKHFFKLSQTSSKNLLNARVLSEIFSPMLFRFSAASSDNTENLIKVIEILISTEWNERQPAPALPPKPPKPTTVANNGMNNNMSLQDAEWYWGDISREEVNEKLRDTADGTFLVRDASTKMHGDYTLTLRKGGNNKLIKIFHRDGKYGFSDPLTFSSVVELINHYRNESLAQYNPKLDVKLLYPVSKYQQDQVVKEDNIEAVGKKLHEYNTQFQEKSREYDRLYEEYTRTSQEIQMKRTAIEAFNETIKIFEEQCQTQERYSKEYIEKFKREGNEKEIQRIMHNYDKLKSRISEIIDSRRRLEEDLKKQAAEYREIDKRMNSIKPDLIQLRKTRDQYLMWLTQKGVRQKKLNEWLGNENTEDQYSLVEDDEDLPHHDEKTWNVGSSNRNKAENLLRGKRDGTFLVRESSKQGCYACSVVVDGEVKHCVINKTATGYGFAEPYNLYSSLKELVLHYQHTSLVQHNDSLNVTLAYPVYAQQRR
Excerpt: Compounds were screened for their ability to inhibit PI3Kα (PI3Ka), PI3Kβ (PI3Kb), PI3Kδ (PI3Kd) and PI3Kγ (PI3Kg) using a cell-free based PI3K HTRF™ assay (Millipore, ref. #33-017).
PI-3 Kinase HTRF kit (ref. #33-037) and the different PI3K recombinant isoforms (ref. #14-602, ref. #14-603, ref. #14-604, ref. #15-558 for Alpha, Beta, Delta and Gamma respectively) were purchased at Millipore (expressed in insect cells). ATP was purchased at Sigma Aldrich (ref. #A7699).
The compounds were pre-incubated with the enzyme for 30 min before starting of the catalytic reaction. [PIP2] was used at its Km. […] Time of assay and [Enzyme] were optimized to work in the linear range. Stop and Detection mixtures were used as specified in the Millipore PI-3 Kinase kit.
Reaction time and enzyme concentration in the assay will depend of each batch.
All experiments were analysed using Activity Base software from IDBS and the four-parameter log equation.
`Cc1ccn2nc([C@H](C)Nc3ncnc4[nH]cc(-c5cc(NS(C)(=O)=O)cc(N(C)C)c5)c34)n(-c3ccccc3)c(=O)c12` [Example 76, (S)—N-(3-(Dimethylamino)-5-(4-((1-(5-methyl-4-oxo-3-phenyl-3,4-dihydropyrrolo[2,1-f][1,2,4]triazin-2-yl)ethyl)amino)-7H-pyrrolo[2,3-d]pyrimidin-5-yl)phenyl)methanesulfonamide]: the IC50 (in general, the midpoint of a concentration-inhibition curve) was found to be 0.8 nM.

`COc1ccc(S(=O)(=O)n2ccc3ccc(-c4c(N)ncnc4N[C@@H](C)c4nn5ccc(C)c5c(=O)n4-c4ccccc4)cc32)cc1` [Example 199, (S)-2-(1-((6-Amino-5-(1-((4-methoxyphenyl)sulfonyl)-1H-indol-6-yl)pyrimidin-4-yl)amino)ethyl)-5-methyl-3-phenylpyrrolo[2,1-f][1,2,4]triazin-4(3H)-one]: the half-maximal inhibitory concentration (IC50) was found to be 3 nM.

In the case of `Cc1ccn2nc(CNc3ncnc(N)c3-c3cncc(C(F)F)c3)n(-c3ccccc3)c(=O)c12` [Example 169, 2-(((6-Amino-5-(5-(difluoromethyl)pyridin-3-yl)pyrimidin-4-yl)amino)methyl)-5-methyl-3-phenylpyrrolo[2,1-f][1,2,4]triazin-4(3H)-one], the IC50 was 3 nM.

On to `N#Cc1c(N)ncnc1N[C@@H](CCOc1ccccc1)c1nn2cccc2c(=O)n1-c1ccccc1` [Example 20, (S)-4-Amino-6-((1-(4-oxo-3-phenyl-3,4-dihydropyrrolo[2,1-f][1,2,4]triazin-2-yl)-3-phenoxypropyl)amino)pyrimidine-5-carbonitrile], for which the 50% inhibitory concentration (IC50) was 1 nM.

As to `Cc1ccn2nc([C@H](C)Nc3ncnc(N)c3C(=O)N3CC[C@H](O)C3)n(-c3ccccc3)c(=O)c12` [Example 119, 3-((S)-1-((6-Amino-5-((S)-3-hydroxypyrrolidine-1-carbonyl)pyrimidin-4-yl)amino)ethyl)-8-methyl-2-phenylpyrrolo[2,1-f][1,2,4]triazin-1 (2H)-one], the IC50 came out at 156 nM.

For the molecule `Cc1ccn2nc([C@H](C)Nc3ncnc(N)c3Cc3cccc(O)c3)n(-c3ccccc3)c(=O)c12` [Example 64, (S)-2-(1-((6-Amino-5-(3-hydroxybenzyl)pyrimidin-4-yl)amino)ethyl)-5-methyl-3-phenylpyrrolo[2,1-f][1,2,4]triazin-4(3H)-one], the IC50 worked out at 16 nM.

As to `C[C@H](Nc1ncnc(N)c1-c1cc(O)cc(F)c1)c1nn2cccc2c(=O)n1-c1ccccc1` [Example 7, (S)-2-(1-((6-Amino-5-(3-fluoro-5-hydroxyphenyl)pyrimidin-4-yl)amino)ethyl)-3-phenylpyrrolo[2,1-f][1,2,4]triazin-4(3H)-one], the IC50 amounted to 11 nM.

For the molecule `CCNc1ncc(-c2c(N)ncnc2N[C@@H](C)c2nn3ccc(C)c3c(=O)n2-c2ccccc2)cc1NS(=O)(=O)c1ccc(O)cc1` [Example 218, (S)—N-(5-(4-Amino-6-((1-(5-methyl-4-oxo-3-phenyl-3,4-dihydropyrrolo[2,1-f][1,2,4]triazin-2-yl)ethyl)amino)pyrimidin-5-yl)-2-(ethylamino)pyridin-3-yl)-4-hydroxybenzenesulfonamide], the IC50 was 5 nM.

With `Cc1ccn2nc([C@H](C)Nc3ncnc4[nH]cc(-c5cnn(CCN(C)C)c5)c34)n(-c3ccccc3)c(=O)c12` [Example 107, (S)-2-(1-((5-(1-(2-(Dimethylamino)ethyl)-1H-pyrazol-4-yl)-7H-pyrrolo[2,3-d]pyrimidin-4-yl)amino)ethyl)-5-methyl-3-phenylpyrrolo[2,1-f][1,2,4]triazin-4(3H)-one], the IC50 was 2 nM.

Take `COc1cccc(Cc2ccn3nc([C@H](C)Nc4ncnc(N)c4C#N)n(-c4ccccc4)c(=O)c23)c1` [Example 40, (S)-4-Amino-6-((1-(5-(3-methoxybenzyl)-4-oxo-3-phenyl-3,4-dihydropyrrolo[2,1-f][1,2,4]triazin-2-yl)ethyl)amino)pyrimidine-5-carbonitrile]: the half-maximal inhibitory concentration (IC50) is 30 nM.

On to `Cc1ccn2nc([C@H](C)Nc3ncnc(N)c3-c3cccc(C(=O)Nc4cccc(O)c4)c3)n(-c3ccccc3)c(=O)c12` [Example 168, (S)-3-(4-Amino-6-((1-(5-methyl-4-oxo-3-phenyl-3,4-dihydropyrrolo[2,1-f][1,2,4]triazin-2-yl)ethyl)amino)pyrimidin-5-yl)-N-(3-hydroxyphenyl)benzamide], for which the half-inhibitory concentration (IC50) amounted to 2 nM.

Turning to `Cc1ccn2nc([C@H](C)Nc3ncnc4[nH]cc(-c5cc(NS(C)(=O)=O)c6cc[nH]c6c5)c34)n(-c3ccccc3)c(=O)c12` [Example 209, (S)—N-(6-(4-((1-(5-Methyl-4-oxo-3-phenyl-3,4-dihydropyrrolo[2,1-f][1,2,4]triazin-2-yl)ethyl)amino)-7H-pyrrolo[2,3-d]pyrimidin-5-yl)-1H-indol-4-yl)methanesulfonamide], the IC50 is 0.2 nM.

With `Cc1ccn2nc([C@H](C)Nc3ncnc4[nH]cc(Sc5ccc(O)cc5)c34)n(-c3ccccc3)c(=O)c12` [Example 97, (S)-2-(1-((5-((4-Hydroxyphenyl)thio)-7H-pyrrolo[2,3-d]pyrimidin-4-yl)amino)ethyl)-5-methyl-3-phenylpyrrolo[2,1-f][1,2,4]triazin-4(3H)-one], the IC50 was 2 nM.

(Values after patent publication US9388189B2, “Pyrrolotriazinone derivatives as PI3K inhibitors” (ALMIRALL, S.A., priority 2012, dated 2016).)
